In one experiment the target is T1, HIV-1 integrase (Human immunodeficiency virus type 1 group M subtype B, UniProt P04585).
T1 construct: Integrase is a 32 kDA viral protein that is biologically active under a multimeric form
As to the kind of experiment: biochemical. As to the method: (§1) The simultaneous measurement of integrase-DNA interaction and subsequent 3′-processing activity by steady-state fluorescence anisotropy was performed as described in Guiot et al. (2006). […] After the initial DNA-binding step (performed at 25° C.), the 3′-processing activity was measured at 37° C. by fixed-time experiments: The reaction was stopped at varying times by adding SDS (0.25% final) which disrupts all IN-DNA complexes in the sample. The IN-mediated cleavage of the terminal GT dinucleotide (labeled by fluorescein on the 3′-end) leads to a significant decrease of r as compared to the r value corresponding to the fluorescein-labeled unprocessed DNA substrate. The fraction of released dinucleotide is calculated by using Eq. (1): […]

A further experiment relates to HIV-1 strain RF. The conditions noted are these: strain RF (RP in Table 5); peptide with Pep-1 or Pep-3 at ratio 20/1; combinations with Pep-3.
A further experiment has as its system HIV-1 strain NDK. The conditions noted are these: peptide with Pep-1 or Pep-3 at ratio 20/1, combinations with Pep-3.
The next experiment addresses IN/DNA complexes (Human immunodeficiency virus type 1 group M subtype B, UniProt P04585). As to the kind of experiment: DNA-binding of integrase, fluorescence anisotropy. The experiment is classed as biochemical, HIV-1. Here is the method:
as §1
For orientation: Fluorescence polarisation rises when a labelled molecule tumbles more slowly, as on binding a larger partner.

For the next experiment, the target named is IN/LEDGF complex (Human immunodeficiency virus type 1 group M subtype B, UniProt P04585). As to the kind of experiment: Dissociation of IN/LEDGF complex (AlphaScreen, immunoprecipitation). The experiment is classed as biochemical. Here is the method: Dissociation of IN/LEDGF complex was measured by fluorescence resonance energy transfer (AlphaScreen® technology) and immunoprecipitation experiments: • Amplified Luminescent Proximity Homogeneous Assay (ALPHA): when the proteins (IN and LEDGF), linked to acceptor and donor beads, interact together (i.e., are into close proximity), a photosignal (a high amplified signal with output in the 520-560 nm range) is detected; when the proteins are not in close proximity, the reactive oxygen decays and there is no detectable signal generated; • immunoprecipitation (IP) was performed using polyclonal anti LEDGF antibodies (purchased from Santa Cruz Biotechnology, USA) and polyclonal HA antibodies (purchased from Eurogentec, Belgium). Cell line expression HA-tagged integrase was using for the experiment in the presence of increasing concentrations of peptide inhibitors.
On the technique in general: Alpha assays give light when donor and acceptor beads are brought close together.

Another experiment addresses T2, HIV-1 RT (Human immunodeficiency virus type 1 group M subtype B, UniProt P03366).
T2 construct: The heterodimeric p66/p51 RT was eluted with an imidazole gradient; p66 and p51 derived from p66 by proteolytic cleavage of the C-terminal RNAse H domain; made in house; host or cells: E. coli (M15 for the His-tagged subunits)
As to the kind of experiment: biochemical. An outline of the steps:
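HIV-1 RT (20 nM, as added) was preincubated 23 h with increasing peptide concentrations, then reaction buffer was added (Tris pH 8.0, KCl, MgCl2, DTT, 0.15 µM poly(rA)-(dT)15, 15 µM dTTP plus 3H-dTTP, as added) for 30 min at 37 °C. Incorporated 3H was measured after TCA precipitation and filtration by scintillation counting; mean of three experiments.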

A further experiment has as its system HIV-1 215Y. It counts as cell-based. The note with it: AZT-resistant.
Another experiment has as its system HIV-1 74V. It counts as cell-based. The note with it: resistant to ddI and ddC.

Where “and” joins values, the source holds several entries; their conditions need not be identical. Equal entries are not always repeated. Where no end group is shown, it is not given here.

The term EC50 denotes the concentration that produces a half-maximal response. The low end stands for greater potency, the high end for weaker potency. What is called Ki is a dissociation constant, usually derived from enzyme kinetics or from competition with a known ligand. Read a high Ki as weaker binding. One may read the IC50 as the point on the concentration scale where inhibition reaches its midpoint.

With GTKWLTEVWPL [Peptide P16], the half-maximal effective concentration (EC50) on HIV-1 integrase was found to be 10 µM; on IN/DNA complexes it was 8 µM; on IN/LEDGF complex, 0.8 µM. Further, the Ki on HIV-1 integrase is 10 µM; at HIV-1 RT it was 14.4 µM. Also, the IC50 in the experiment on HIV-1 strain RF was 0.0109 µM; with HIV-1 strain NDK, 0.0029 µM. In addition, on HIV-1 RT (relative to PAW), the “reduction of efficiency (higher Ki) relative to PAW” value was 20 fold.

In the case of GTKWLTEWIPLTAE [Peptide P27], the half-inhibitory concentration (IC50) in the experiment with HIV-1 215Y was 0.0027 µM and 0.0039 µM; in the experiment on HIV-1 strain RF, 0.0015 µM; in the experiment on HIV-1 74V it was 0.0038 µM and 0.0049 µM; with HIV-1 strain NDK, 0.0003 µM. For the same sequence, the EC50 at HIV-1 integrase and on IN/DNA complexes was over 100 µM throughout. Also, the figures for the Ki on HIV-1 integrase and on HIV-1 RT were over 100 µM and 0.05 ± 1e-05 µM, respectively. Further, the “increase of efficiency relative to PAW” value at HIV-1 RT (relative to PAW) is reported as 14 fold.
